Each structure is given as a SMILES string.

In the assay the target is T1, MALT1 (Homo sapiens, UniProt Q9UDY8).
T1 construct: Avi-tagged FL MALT-1 (Pharmaron, stored at −70° C.); Avi-tag
T1 sequence (Q9UDY8 1-824): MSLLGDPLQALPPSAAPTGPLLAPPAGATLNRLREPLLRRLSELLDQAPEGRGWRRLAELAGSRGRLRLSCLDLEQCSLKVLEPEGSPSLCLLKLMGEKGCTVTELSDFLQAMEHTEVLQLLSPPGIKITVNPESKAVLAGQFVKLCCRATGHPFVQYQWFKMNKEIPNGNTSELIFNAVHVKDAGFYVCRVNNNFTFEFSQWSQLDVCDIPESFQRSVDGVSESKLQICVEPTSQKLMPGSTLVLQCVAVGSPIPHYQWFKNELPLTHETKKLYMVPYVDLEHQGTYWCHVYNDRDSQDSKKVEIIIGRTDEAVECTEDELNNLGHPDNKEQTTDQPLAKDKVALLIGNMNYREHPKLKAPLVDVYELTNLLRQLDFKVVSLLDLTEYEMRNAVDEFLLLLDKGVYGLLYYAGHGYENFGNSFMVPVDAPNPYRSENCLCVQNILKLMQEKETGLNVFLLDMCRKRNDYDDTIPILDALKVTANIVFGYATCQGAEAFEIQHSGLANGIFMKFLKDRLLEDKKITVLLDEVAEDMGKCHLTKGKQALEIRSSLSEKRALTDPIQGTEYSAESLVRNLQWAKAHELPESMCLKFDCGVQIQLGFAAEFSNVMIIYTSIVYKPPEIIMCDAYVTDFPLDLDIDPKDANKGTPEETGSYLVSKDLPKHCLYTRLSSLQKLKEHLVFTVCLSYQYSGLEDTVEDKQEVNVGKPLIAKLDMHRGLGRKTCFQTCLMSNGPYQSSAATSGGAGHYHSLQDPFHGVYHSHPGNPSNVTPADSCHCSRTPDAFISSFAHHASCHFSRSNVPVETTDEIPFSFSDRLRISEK
Put plainly: MALT1 inhibition assay (MALT-1 Fluorogenic Peptide Cleavage Assay, Ac-LRSR-AMC substrate). Format: biochemical. As to conditions: Avi-tagged FL MALT-1, 30 min pre-incubation, 90 min reaction at room temperature, fluorescence intensity. A digest of the protocol:
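Full-length Avi-tagged MALT1 pre-incubated 30 min at room temperature with compounds (2% DMSO final) in HEPES pH 6.89, sodium citrate, TCEP, EDTA, CHAPS buffer. Ac-LRSR-AMC added from 50 µM (Km) or […] working stocks; 90 min at room temperature, AMC fluorescence (ex 342/em 441 nm); IC50 from % inhibition curves.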
Regarding `Cn1nc(-c2cccc3c(N)nccc23)c(C(F)(F)F)c1C(=O)Nc1ccnc(C(F)(F)F)c1` [Compound I-78], the IC50 is more than 10000 nM.
For `Cn1nc(-c2cccc3c(=O)[nH]ccc23)c(C(F)(F)F)c1C(=O)Nc1cnc(-n2nccn2)c(Cl)c1` [Compound I-133] the value was less than 500 nM; for `Cn1nc(-c2cccc3ccoc23)c(C(F)(F)F)c1C(=O)Nc1cnc(-n2nccn2)c(C(F)(F)F)c1` [Compound I-127], less than 500 nM.
`Cn1nc(-c2cccc3c2CNC3=O)c(C(F)(F)F)c1C(=O)Nc1ccnc(C(F)(F)F)c1` [Compound I-65] returned an IC50 of less than 500 nM.
In the case of `Cn1nc(-c2c[nH]c3ncccc23)c(C(F)(F)F)c1C(=O)Nc1ccnc(C(F)(F)F)c1` [Compound I-6] it was less than 500 nM.
Compound `Cn1nc(-c2cccc3c(=O)[nH]ccc23)c(C(F)(F)F)c1C(=O)Nc1ccnc(C(F)(F)F)c1` [Compound I-63] showed an IC50 of less than 500 nM.
With `Cc1nc2cccc(-c3nn(C)c(C(=O)Nc4cnc(-n5nccn5)c(Cl)c4)c3C(F)(F)F)c2s1` [Compound I-297], the IC50 is less than 500 nM.
As to `Cn1nc(-c2ccc(F)c(N)n2)c(C(F)(F)F)c1C(=O)Nc1ccnc(C(F)(F)F)c1` [Compound I-196, 3-(6-amino-5-fluoropyridin-2-yl)-1-methyl-4-(trifluoromethyl)-N-(2-(trifluoromethyl)pyridin-4-yl)-1H-pyrazole-5-carboxamide], the IC50 was in the range of 500 to 2500 nM.
Compound `CC(=O)Nc1cc(-c2nn(C)c(C(=O)Nc3ccnc(C(F)(F)F)c3)c2C(F)(F)F)ccn1` [Compound I-100] had an IC50 of more than 10000 nM.
For `Cn1nc(-c2cccn3nnnc23)c(C(F)(F)F)c1C(=O)Nc1ccnc(C(F)(F)F)c1` [Compound I-102], the IC50 lay in the range of 2500 to 10000 nM.
With `Cn1nc(-c2csc3ccncc23)c(C(F)(F)F)c1C(=O)Nc1ccnc(C(F)(F)F)c1` [Compound I-73], the IC50 is 500 to 2500 nM.
The compound `Cn1nc(-c2ccc(C#N)c3ncccc23)c(C(F)(F)F)c1C(=O)Nc1ccnc(C(F)(F)F)c1` [Compound I-22] gave an IC50 of 500 to 2500 nM.
In turn, `Cn1nc(-c2cccc3nccn23)c(C(F)(F)F)c1C(=O)Nc1ccnc(C(F)(F)F)c1` [Compound I-13] returned a half-maximal inhibitory concentration (IC50) of 500 to 2500 nM.
Regarding `Cc1cc(NC(=O)c2c(C(F)(F)F)c(-c3ccccc3)nn2C)cc(C)n1` [Compound I-288], the IC50 is 2500 to 10000 nM.
In the case of `Cn1nc(-c2ccnc3nccn23)c(C(F)(F)F)c1C(=O)Nc1ccnc(C(F)(F)F)c1` [Compound I-247] it was 500 to 2500 nM; in that of `Cn1nc(-c2cnc3n2CCOC3)c(C(F)(F)F)c1C(=O)Nc1ccnc(C(F)(F)F)c1` [Compound I-71], more than 10000 nM.
The compound `Cn1nc(-c2cccc3c2COC3)c(C(F)(F)F)c1C(=O)Nc1ccnc(C(F)(F)F)c1` [Compound I-95] gave an IC50 of 500 to 2500 nM.
In the case of `Cn1nc(-c2nccn3ccnc23)c(C(F)(F)F)c1C(=O)Nc1ccnc(C(F)(F)F)c1` [Compound I-111] it was 500 to 2500 nM; in that of `Cn1nc(-c2ccc(F)cc2Cl)c(C(F)(F)F)c1C(=O)Nc1ccnc(C(F)(F)F)c1` [Compound I-45], less than 500 nM.
Compound `Cn1nc(-c2cccc3cnccc23)c(C(F)(F)F)c1C(=O)Nc1cnc(-n2nccn2)c(Cl)c1` [Compound I-140, N-(5-chloro-6-(2H-1,2,3-triazol-2-yl)pyridin-3-yl)-3-(isoquinolin-5-yl)-1-methyl-4-(trifluoromethyl)-1H-pyrazole-5-carboxamide] registered an IC50 of less than 500 nM.
Take `Cn1nc(-c2c(F)ccc3ncsc23)c(C(F)(F)F)c1C(=O)Nc1ccnc(C(F)(F)F)c1` [Compound I-280]: the IC50 is less than 500 nM.
`O=C(Nc1cnc(-n2nccn2)c(Cl)c1)c1c(C(F)(F)F)c(-c2ccccc2)nn1C1COC1` [Compound I-176]: the IC50 was 2500 to 10000 nM.
Compound `Cn1nc(-c2cccc3nscc23)c(C(F)(F)F)c1C(=O)Nc1cnc(-n2nccn2)c(Cl)c1` [Compound I-285] yielded an IC50 of less than 500 nM.
For `Cn1nc(-c2cccc3ncsc23)c(C(F)(F)F)c1C(=O)Nc1ccnc(C(F)(F)F)c1` [Compound I-60] the value was less than 500 nM; for `Cn1nc(C2CCNCC2)c(C(F)(F)F)c1C(=O)Nc1ccnc(C(F)(F)F)c1` [Compound I-200], more than 10000 nM.
Consider `Cn1nc(-c2cccc3nccn23)c(C(F)(F)F)c1C(=O)Nc1cnc(-n2nccn2)c(C(F)(F)F)c1` [Compound I-222], for which the IC50 is less than 500 nM.
In the case of `Cn1nc(-c2cccc3cnsc23)c(C(F)(F)F)c1C(=O)Nc1ccnc(C(F)(F)F)c1` [Compound I-67] it was more than 10000 nM; in that of `Cn1nc(-c2cccc3nccn23)c(C(F)(F)F)c1C(=O)Nc1ccc(C(=O)N2CC(O)C2)c(Cl)c1` [Compound I-241, N-(3-Chloro-4-(3-hydroxyazetidine-1-carbonyl)phenyl)-3-(imidazo[1,2-a]pyridin-5-yl)-1-methyl-4-(trifluoromethyl)-1H-pyrazole-5-carboxamide], 2500 to 10000 nM; in that of `Cn1nc(-c2cccn3nccc23)c(C(F)(F)F)c1C(=O)Nc1ccnc(C(F)(F)F)c1` [Compound I-87], less than 500 nM.
On to `Cn1nc(-c2cccc3c2CCO3)c(C(F)(F)F)c1C(=O)Nc1ccnc(C(F)(F)F)c1` [Compound I-91], for which the IC50 was 500 to 2500 nM.
In the case of `COc1ccccc1-c1nn(C)c(C(=O)Nc2ccnc(C(F)(F)F)c2)c1C(F)(F)F` [Compound I-88] it was less than 500 nM.
`CCn1nc(C(=O)Nc2cnc(-n3nccn3)c(Cl)c2)c(C(F)(F)F)c1-c1ccccc1` [Compound I-168] registered an IC50 of less than 500 nM.
In turn, `Cn1nc(-c2cccc3[nH]c(=O)sc23)c(C(F)(F)F)c1C(=O)Nc1ccnc(C(F)(F)F)c1` [Compound I-243] had an IC50 of 500 to 2500 nM.
For the compound `O=C(Nc1cnc(-n2nccn2)c(Cl)c1)c1cc(-c2ccccc2)n(C(F)F)n1` [Compound I-182], the 50% inhibitory concentration (IC50) was more than 10000 nM.
Compound `Cn1nc(-c2ccc(F)c3ncsc23)c(C(F)(F)F)c1C(=O)Nc1ccnc(C(F)(F)F)c1` [Compound I-234] returned an IC50 of more than 10000 nM.
`[2H]C([2H])([2H])n1nc(-c2ccccc2)c(C(F)(F)F)c1C(=O)Nc1cnc(-n2nccn2)c(C#N)c1` [Compound I-167] returned an IC50 of less than 500 nM.
Turning to `O=C1c2c(C(F)(F)F)c(-c3ccccc3)nn2CCCN1c1ccnc(C(F)(F)F)c1` [Compound I-183, 2-phenyl-3-(trifluoromethyl)-5-(2-(trifluoromethyl)pyridin-4-yl)-5,6,7,8-tetrahydro-4H-pyrazolo[1,5-a][1,4]diazepin-4-one], the IC50 is more than 10000 nM.
Take `Cn1nc(-c2cccn3ncnc23)c(C(F)(F)F)c1C(=O)Nc1ccnc(C(F)(F)F)c1` [Compound I-64]: the IC50 fell in the range of 500 to 2500 nM.
As to `Cn1nc(-c2cncc3ncccc23)c(C(F)(F)F)c1C(=O)Nc1ccnc(C(F)(F)F)c1` [Compound I-295], the IC50 fell in the range of 2500 to 10000 nM.
In turn, `Cn1nc(-c2cccc3c2NCCO3)c(C(F)(F)F)c1C(=O)Nc1ccnc(C(F)(F)F)c1` [Compound I-54] yielded an IC50 of 500 to 2500 nM.
Turning to `Cn1nc(-c2ccc3cnccc3c2)c(C(F)(F)F)c1C(=O)Nc1ccnc(C(F)(F)F)c1` [Compound I-37], the IC50 is more than 10000 nM.
Compound `Cn1nc(-c2cccc3ncn(C)c23)c(C(F)(F)F)c1C(=O)Nc1ccnc(C(F)(F)F)c1` [Compound I-4] came in with a half-inhibitory concentration (IC50) of less than 500 nM.
In the case of `Cn1nc(-c2cnc3cccnn23)c(C(F)(F)F)c1C(=O)Nc1ccnc(C(F)(F)F)c1` [Compound I-16] it was more than 10000 nM.

For orientation: IC50 means the concentration at which inhibition is half-maximal.

Source of the values: US20260085073A1, “PYRAZOLYLCARBOXAMIDE COMPOUNDS AND THEIR USE IN THERAPY” (Hotspot Therapeutics, Inc., priority 2022, published 2026).
